Measurements as given in patent publication US12202818B2, “Compounds and methods for CD73 modulation and indications therefor” (Opna Bio SA, priority 2020, dated 2025).

Tests used:
human CD73 = molecular target: T1, human CD73 (Homo sapiens, UniProt P21589); experiment: Inhibitor activity against CD73 in cell based assay (CD73 expressing CHO-K1 cells); conditions: CHO-K1 cells expressing human CD73, 150 μM AMP, 4 hours of incubation; read-out: CHO-K1 CELL_VARIANT: CD73 IC50
T1 construct: expressed in transfected cells
T1 sequence (P21589 27-549): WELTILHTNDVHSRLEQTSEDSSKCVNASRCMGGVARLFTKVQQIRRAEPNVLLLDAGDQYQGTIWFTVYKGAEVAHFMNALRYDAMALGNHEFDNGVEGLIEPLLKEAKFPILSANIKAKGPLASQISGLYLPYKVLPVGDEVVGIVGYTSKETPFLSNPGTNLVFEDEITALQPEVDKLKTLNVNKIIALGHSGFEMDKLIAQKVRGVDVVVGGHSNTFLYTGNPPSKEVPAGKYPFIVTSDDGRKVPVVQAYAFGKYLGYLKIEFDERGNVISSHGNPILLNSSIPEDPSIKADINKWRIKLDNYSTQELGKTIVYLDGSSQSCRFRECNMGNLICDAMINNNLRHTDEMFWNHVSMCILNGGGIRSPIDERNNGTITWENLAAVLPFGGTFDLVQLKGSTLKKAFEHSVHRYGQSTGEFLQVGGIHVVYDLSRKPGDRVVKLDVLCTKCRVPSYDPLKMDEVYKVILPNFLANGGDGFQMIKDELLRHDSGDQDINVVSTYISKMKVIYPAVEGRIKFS
Procedure, shortened: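 AMP (150 μM) was added alongside 8 titrated compound doses (maximum 10 μM, 1:3 steps) to CHO-K1 cells stably expressing human CD73. After 4 h, supernatant AMP was measured indirectly with CellTiter-Glo 2.0 plus 1 μM ATP (30 min, RT). % inhibition versus high and low controls was fitted nonlinearly for IC50.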

[1] = molecular target: T2, Human CD73 (amino acid residues 27-549) (Homo sapiens, UniProt P21589); experiment: CD73 enzymatic assay (luciferase-based indirect assay, CellTiter-Glo); format: biochemical; conditions: 0.4 nM CD73, 150 μM AMP, 1 hour at room temperature
T2 construct: Human CD73 (amino acid residues 27-549); His tag (N); made in house; host or cells: E. coli
T2 sequence (P21589 27-549): T1 sequence (P21589 27-549)
Procedure, shortened: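 Luciferase-coupled readout: AMP left after CD73 turnover suppresses CellTiter-Glo signal (1 μM ATP final, 30 min RT). Reaction beforehand: 150 μM AMP, 0.4 nM E. coli-made His-tagged CD73 residues 27-549, test compound, HEPES pH 7.4 with Tween-20, 1 h RT. % inhibition fitted nonlinearly for IC50.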

Row | SMILES | IC50 (human CD73) | IC50 [1]
1 | O=c1[nH]ncc(N2CC[C@@H](Oc3ncccc3NC3CCC(F)(F)CC3)C2)c1Cl [P-0110, (R)-4-chloro-5-(3-((3-((4,4-difluorocyclohexyl)amino)pyridin-2-yl)oxy)pyrrolidin-1-yl)pyridazin-3(2H)-one] | 0.001 to 10 µM | 0.001 to 10 µM
2 | Cc1nn(CCO)c(C)c1-c1cc(F)nc(O[C@@H]2CCN(c3cn[nH]c(=O)c3Cl)C2)c1 [P-0192, (R)-4-chloro-5-(3-((6-fluoro-4-(1-(2-hydroxyethyl)-3,5-dimethyl-1H-pyrazol-4-yl)pyridin-2-yl)oxy)pyrrolidin-1-yl)pyridazin-3(2H)-one] | 0.001 to 10 µM | 0.001 to 10 µM
3 | Cc1nn(C)cc1-c1cccc(O[C@@H]2CCN(c3cn[nH]c(=O)c3Cl)C2)c1 [P-0197, (R)-4-chloro-5-(3-(3-(1,3-dimethyl-1H-pyrazol-4-yl)phenoxy)pyrrolidin-1-yl)pyridazin-3(2H)-one] | 0.001 to 10 µM | 0.001 to 10 µM
4 | COC(=O)C1CC(Cn2nc(C)c(-c3ccnc(O[C@@H]4CCN(c5cn[nH]c(=O)c5Cl)C4)c3)c2C)C1 (stereo partly drawn) [P-0055, methyl (R)-3-((4-(2-((1-(5-chloro-6-oxo-1,6-dihydropyridazin-4-yl)pyrrolidin-3-yl)oxy)pyridin-4-yl)-3,5-dimethyl-1H-pyrazol-1-yl)methyl)cyclobutane-1-carboxylate] | 0.001 to 10 µM | 0.001 to 10 µM
5 | O=c1[nH]ncc(N2CC[C@@H](Oc3cc(C4CCCCC4)ccn3)C2)c1Cl [P-0085, (R)-4-chloro-5-(3-((4-cyclohexylpyridin-2-yl)oxy)pyrrolidin-1-yl)pyridazin-3(2H)-one] | 0.001 to 10 µM | 0.001 to 10 µM
6 | O=C(C1CC1)N1CCC(c2ccnc(O[C@@H]3CCN(c4cn[nH]c(=O)c4Cl)C3)c2)CC1 [P-0058, (R)-4-chloro-5-(3-((4-(1-(cyclopropanecarbonyl)piperidin-4-yl)pyridin-2-yl)oxy)pyrrolidin-1-yl)pyridazin-3(2H)-one] | 0.001 to 10 µM | 0.001 to 10 µM

The remaining lines, values ahead:

Row | IC50 (human CD73) | IC50 [1] | SMILES
7 | 0.001 to 10 µM | 0.001 to 10 µM | CCNS(=O)(=O)c1ccc(-c2ccnc(O[C@@H]3CCN(c4cn[nH]c(=O)c4Cl)C3)c2)cc1 [P-0243, (R)-4-(2-((1-(5-chloro-6-oxo-1,6-dihydropyridazin-4-yl)pyrrolidin-3-yl)oxy)pyridin-4-yl)-N-ethylbenzenesulfonamide]
8 | 0.001 to 10 µM | 0.001 to 10 µM | CC(=O)Nc1ccc(-c2ccnc(O[C@@H]3CCN(c4cn[nH]c(=O)c4Cl)C3)c2)c(F)c1 [P-0213, (R)-N-(4-(2-((1-(5-chloro-6-oxo-1,6-dihydropyridazin-4-yl)pyrrolidin-3-yl)oxy)pyridin-4-yl)-3-fluorophenyl)acetamide]
9 | 0.001 to 10 µM | 0.001 to 10 µM | COC(=O)C1C2CCC1CN(c1ccnc(O[C@@H]3CCN(c4cn[nH]c(=O)c4Cl)C3)c1)C2 (stereo partly drawn) [P-0028, methyl 3-(2-(((R)-1-(5-chloro-6-oxo-1,6-dihydropyridazin-4-yl)pyrrolidin-3-yl)oxy)pyridin-4-yl)-3-azabicyclo[3.2.1]octane-8-carboxylate]
10 | 0.001 to 10 µM | 0.001 to 10 µM | O=C(CO)N1CCC(c2ccnc(O[C@@H]3CCN(c4cn[nH]c(=O)c4Cl)C3)c2)CC1 [P-0016, (R)-4-chloro-5-(3-((4-(1-(2-hydroxyacetyl)piperidin-4-yl)pyridin-2-yl)oxy)pyrrolidin-1-yl)pyridazin-3(2H)-one]
11 | 0.001 to 10 µM | 0.001 to 10 µM | Cc1nn(C)c(C)c1-c1cc(O[C@@H]2CCN(c3cnn(CCO)c(=O)c3Cl)C2)ncc1F [P-0115, (R)-4-chloro-5-(3-((5-fluoro-4-(1,3,5-trimethyl-1H-pyrazol-4-yl)pyridin-2-yl)oxy)pyrrolidin-1-yl)-2-(2-hydroxyethyl)pyridazin-3(2H)-one]
12 | 0.001 to 10 µM | 0.001 to 10 µM | Cc1nn(CC2CCCOC2)c(C)c1-c1ccnc(O[C@@H]2CCN(c3cn[nH]c(=O)c3Cl)C2)c1 (stereo partly drawn) [P-0043, 4-chloro-5-((3R)-3-((4-(3,5-dimethyl-1-((tetrahydro-2H-pyran-3-yl)methyl)-1H-pyrazol-4-yl)pyridin-2-yl)oxy)pyrrolidin-1-yl)pyridazin-3(2H)-one]
